Tests used:
Test in all cases: KINOMEscan kinase binding assay
[1] = molecular target: T1, 384 kinases from the human genome (Homo sapiens, UniProt P51813); details: kinase BMX (Entrez BMX)
T1 construct: purchased Eurofin/DiscoverX
In short: (§1)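 A panel of 384 human kinases was profiled by KINOMEscan binding in the presence of 10 µM compound. Kinase–ligand binding was given as percent of DMSO control, averaged from duplicates in a single run, with an S(10) selectivity score.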

[2] = molecular target: T2, 384 kinases from the human genome (Homo sapiens, UniProt Q9BX84); details: kinase TRPM6 (Entrez TRPM6)
T2 construct: purchased Eurofin/DiscoverX
In short: as §1

[3] = molecular target: T3, 384 kinases from the human genome (Homo sapiens, UniProt Q15375); details: kinase EPHA7 (Entrez EPHA7)
T3 construct: purchased Eurofin/DiscoverX
In short: as §1

[4] = molecular target: T4, 384 kinases from the human genome (Homo sapiens, UniProt Q9Y2K2); details: kinase QSK (Entrez KIAA0999)
T4 construct: purchased Eurofin/DiscoverX
T4 sequence (Q9Y2K2 whole entry): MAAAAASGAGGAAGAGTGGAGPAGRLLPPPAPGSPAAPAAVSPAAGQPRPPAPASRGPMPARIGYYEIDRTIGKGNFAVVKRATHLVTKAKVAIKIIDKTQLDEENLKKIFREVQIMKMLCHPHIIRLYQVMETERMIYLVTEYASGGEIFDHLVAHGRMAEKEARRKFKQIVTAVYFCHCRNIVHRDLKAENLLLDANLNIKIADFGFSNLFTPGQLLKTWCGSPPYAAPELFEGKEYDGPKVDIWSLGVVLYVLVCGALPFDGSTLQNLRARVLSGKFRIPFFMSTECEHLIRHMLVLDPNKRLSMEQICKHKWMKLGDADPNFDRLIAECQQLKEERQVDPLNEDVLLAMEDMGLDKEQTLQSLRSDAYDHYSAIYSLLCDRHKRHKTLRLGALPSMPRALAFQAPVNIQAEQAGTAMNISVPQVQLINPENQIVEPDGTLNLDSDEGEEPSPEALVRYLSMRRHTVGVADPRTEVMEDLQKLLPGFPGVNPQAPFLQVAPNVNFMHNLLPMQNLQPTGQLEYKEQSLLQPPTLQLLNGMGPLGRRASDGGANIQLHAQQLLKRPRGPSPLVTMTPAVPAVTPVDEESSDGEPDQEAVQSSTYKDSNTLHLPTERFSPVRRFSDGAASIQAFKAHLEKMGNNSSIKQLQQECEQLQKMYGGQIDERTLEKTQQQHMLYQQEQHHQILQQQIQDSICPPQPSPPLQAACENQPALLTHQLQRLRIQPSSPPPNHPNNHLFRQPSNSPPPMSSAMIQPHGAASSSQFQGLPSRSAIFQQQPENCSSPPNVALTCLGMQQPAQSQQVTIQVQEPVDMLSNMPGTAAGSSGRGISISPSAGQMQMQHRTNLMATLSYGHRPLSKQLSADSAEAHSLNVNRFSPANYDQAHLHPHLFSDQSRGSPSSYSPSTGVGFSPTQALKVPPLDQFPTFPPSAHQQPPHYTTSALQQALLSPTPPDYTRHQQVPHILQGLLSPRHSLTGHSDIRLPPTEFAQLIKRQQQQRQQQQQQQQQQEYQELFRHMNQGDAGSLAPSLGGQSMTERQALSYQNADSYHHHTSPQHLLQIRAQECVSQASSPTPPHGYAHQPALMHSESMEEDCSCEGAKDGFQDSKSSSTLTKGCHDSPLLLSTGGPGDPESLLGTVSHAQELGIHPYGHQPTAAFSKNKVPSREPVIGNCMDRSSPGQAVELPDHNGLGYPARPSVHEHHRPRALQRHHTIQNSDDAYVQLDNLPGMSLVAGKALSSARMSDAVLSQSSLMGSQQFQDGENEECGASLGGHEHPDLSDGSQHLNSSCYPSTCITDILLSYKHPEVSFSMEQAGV
In short: as §1

[5] = molecular target: T5, 384 kinases from the human genome (Homo sapiens, UniProt P19525); details: kinase PRKR (Entrez EIF2AK2)
T5 construct: purchased Eurofin/DiscoverX
In short: as §1

[6] = molecular target: T6, 384 kinases from the human genome (Homo sapiens, UniProt P15056)
T6 construct: purchased Eurofin/DiscoverX
T6 sequence (P15056 whole entry): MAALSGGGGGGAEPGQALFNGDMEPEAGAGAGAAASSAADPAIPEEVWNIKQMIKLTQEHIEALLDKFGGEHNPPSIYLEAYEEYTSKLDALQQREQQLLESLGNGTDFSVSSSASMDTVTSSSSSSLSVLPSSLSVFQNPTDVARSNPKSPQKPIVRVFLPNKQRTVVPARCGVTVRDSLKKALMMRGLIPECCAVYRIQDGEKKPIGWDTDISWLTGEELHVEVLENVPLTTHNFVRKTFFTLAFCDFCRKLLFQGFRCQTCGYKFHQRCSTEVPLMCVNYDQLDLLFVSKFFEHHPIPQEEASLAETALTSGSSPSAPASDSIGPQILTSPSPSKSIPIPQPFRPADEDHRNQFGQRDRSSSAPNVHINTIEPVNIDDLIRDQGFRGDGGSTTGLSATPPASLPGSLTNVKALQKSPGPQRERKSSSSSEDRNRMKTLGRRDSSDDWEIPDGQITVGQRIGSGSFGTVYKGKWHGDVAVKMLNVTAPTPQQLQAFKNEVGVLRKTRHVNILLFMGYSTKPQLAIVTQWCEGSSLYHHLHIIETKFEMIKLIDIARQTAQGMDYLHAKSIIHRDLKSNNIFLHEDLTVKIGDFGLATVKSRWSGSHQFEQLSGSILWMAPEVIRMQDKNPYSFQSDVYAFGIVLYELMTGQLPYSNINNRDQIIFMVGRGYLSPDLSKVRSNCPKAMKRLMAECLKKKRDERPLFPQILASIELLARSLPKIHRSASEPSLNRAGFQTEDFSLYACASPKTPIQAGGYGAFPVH
In short: as §1

[7] = molecular target: T7, 384 kinases from the human genome (Homo sapiens, UniProt Q9NYY3); details: kinase PLK2 (Entrez PLK2)
T7 construct: purchased Eurofin/DiscoverX
T7 sequence (Q9NYY3 whole entry): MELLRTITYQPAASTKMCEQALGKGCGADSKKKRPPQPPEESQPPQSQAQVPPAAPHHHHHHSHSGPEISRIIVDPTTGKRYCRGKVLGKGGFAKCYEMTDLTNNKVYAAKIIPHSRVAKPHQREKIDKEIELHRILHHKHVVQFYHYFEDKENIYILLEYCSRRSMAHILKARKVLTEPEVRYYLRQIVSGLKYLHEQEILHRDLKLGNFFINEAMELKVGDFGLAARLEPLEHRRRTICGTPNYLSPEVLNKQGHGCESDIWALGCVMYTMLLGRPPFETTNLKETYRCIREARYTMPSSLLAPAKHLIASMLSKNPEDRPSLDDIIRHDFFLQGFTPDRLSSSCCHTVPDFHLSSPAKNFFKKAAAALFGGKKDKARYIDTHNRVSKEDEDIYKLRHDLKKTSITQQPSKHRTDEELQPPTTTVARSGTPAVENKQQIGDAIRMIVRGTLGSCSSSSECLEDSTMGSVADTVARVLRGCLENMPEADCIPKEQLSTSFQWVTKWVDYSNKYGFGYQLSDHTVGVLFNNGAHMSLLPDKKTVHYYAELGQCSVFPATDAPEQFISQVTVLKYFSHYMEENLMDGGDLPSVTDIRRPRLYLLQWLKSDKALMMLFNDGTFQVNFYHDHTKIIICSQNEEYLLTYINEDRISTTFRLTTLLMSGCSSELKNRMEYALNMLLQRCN
In short: as §1

[8] = molecular target: T8, 384 kinases from the human genome (Homo sapiens, UniProt Q9H422); details: kinase HIPK3 (Entrez HIPK3)
T8 construct: purchased Eurofin/DiscoverX
In short: as §1

[9] = molecular target: T9, 384 kinases from the human genome (Homo sapiens, UniProt O94804); details: kinase LOK (Entrez STK10)
T9 construct: purchased Eurofin/DiscoverX
In short: as §1

[10] = molecular target: T10, 384 kinases from the human genome (Homo sapiens, UniProt Q9H3Y6); details: kinase SRMS (Entrez SRMS)
T10 construct: purchased Eurofin/DiscoverX
In short: as §1

[11] = molecular target: T11, 384 kinases from the human genome (Homo sapiens, UniProt Q96GD4); details: kinase AURKB (Entrez AURKB)
T11 construct: purchased Eurofin/DiscoverX
In short: as §1

[12] = molecular target: T12, 384 kinases from the human genome (Homo sapiens, UniProt P30530); details: kinase AXL (Entrez AXL)
T12 construct: purchased Eurofin/DiscoverX
In short: as §1

[13] = molecular target: T13, 384 kinases from the human genome (Homo sapiens, UniProt Q13043); details: kinase MST1 (Entrez STK4)
T13 construct: purchased Eurofin/DiscoverX
In short: as §1

[14] = molecular target: T14, 384 kinases from the human genome (Homo sapiens, UniProt O00329); details: kinase PIK3CD (Entrez PIK3CD)
T14 construct: purchased Eurofin/DiscoverX
In short: as §1

[15] = molecular target: T15, 384 kinases from the human genome (Homo sapiens, UniProt O75747); details: kinase PIK3C2G (Entrez PIK3C2G)
T15 construct: purchased Eurofin/DiscoverX
T15 sequence (O75747 whole entry): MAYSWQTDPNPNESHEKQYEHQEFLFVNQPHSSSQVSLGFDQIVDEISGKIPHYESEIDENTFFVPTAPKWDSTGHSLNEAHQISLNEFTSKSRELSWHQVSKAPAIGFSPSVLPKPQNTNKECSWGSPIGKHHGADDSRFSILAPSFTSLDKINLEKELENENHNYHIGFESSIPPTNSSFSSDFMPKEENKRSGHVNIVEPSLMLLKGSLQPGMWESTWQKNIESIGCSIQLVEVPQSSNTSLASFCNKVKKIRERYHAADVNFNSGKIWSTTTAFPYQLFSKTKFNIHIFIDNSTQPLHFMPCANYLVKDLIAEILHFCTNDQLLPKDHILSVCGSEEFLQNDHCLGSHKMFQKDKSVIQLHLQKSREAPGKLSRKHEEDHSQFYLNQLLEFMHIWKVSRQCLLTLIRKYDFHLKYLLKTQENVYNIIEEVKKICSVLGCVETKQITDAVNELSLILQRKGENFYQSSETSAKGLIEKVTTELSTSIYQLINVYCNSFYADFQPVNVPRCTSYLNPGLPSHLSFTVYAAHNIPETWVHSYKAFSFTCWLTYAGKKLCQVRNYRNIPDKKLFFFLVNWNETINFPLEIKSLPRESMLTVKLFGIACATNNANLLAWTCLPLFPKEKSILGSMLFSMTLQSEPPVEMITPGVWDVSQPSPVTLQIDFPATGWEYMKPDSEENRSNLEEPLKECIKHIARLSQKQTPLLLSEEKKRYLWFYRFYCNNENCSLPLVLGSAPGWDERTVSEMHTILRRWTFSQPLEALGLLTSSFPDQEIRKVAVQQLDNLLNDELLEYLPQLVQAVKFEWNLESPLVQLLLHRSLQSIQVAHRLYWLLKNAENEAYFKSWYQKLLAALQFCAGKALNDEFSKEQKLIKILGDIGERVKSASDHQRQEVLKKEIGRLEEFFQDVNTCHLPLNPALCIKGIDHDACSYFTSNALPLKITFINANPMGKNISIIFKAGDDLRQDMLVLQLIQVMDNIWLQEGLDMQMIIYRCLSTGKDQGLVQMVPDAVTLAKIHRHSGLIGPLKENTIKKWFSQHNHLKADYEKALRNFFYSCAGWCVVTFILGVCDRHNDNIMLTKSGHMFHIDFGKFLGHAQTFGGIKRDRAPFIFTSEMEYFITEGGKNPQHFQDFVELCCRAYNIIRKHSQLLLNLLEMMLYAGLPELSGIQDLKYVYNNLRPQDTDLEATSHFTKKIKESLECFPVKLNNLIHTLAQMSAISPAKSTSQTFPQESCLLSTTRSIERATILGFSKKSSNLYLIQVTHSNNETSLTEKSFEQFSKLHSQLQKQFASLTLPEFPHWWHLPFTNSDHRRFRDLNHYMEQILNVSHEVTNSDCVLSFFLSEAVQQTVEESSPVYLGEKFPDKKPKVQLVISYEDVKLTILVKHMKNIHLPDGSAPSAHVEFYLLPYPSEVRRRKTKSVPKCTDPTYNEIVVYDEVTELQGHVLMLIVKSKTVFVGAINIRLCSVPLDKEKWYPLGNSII
In short: as §1

[16] = molecular target: T16, 384 kinases from the human genome (Homo sapiens, UniProt Q9UBE8); details: kinase NLK (Entrez NLK)
T16 construct: purchased Eurofin/DiscoverX
In short: as §1

[17] = molecular target: T17, 384 kinases from the human genome (Homo sapiens, UniProt P49759); details: kinase CLK1 (Entrez CLK1)
T17 construct: purchased Eurofin/DiscoverX
In short: as §1

[18] = molecular target: T18, 384 kinases from the human genome (Homo sapiens, UniProt O15146); details: kinase MUSK (Entrez MUSK)
T18 construct: purchased Eurofin/DiscoverX
In short: as §1

[19] = molecular target: T19, 384 kinases from the human genome (Homo sapiens, UniProt Q16584); details: kinase MLK3 (Entrez MAP3K11)
T19 construct: purchased Eurofin/DiscoverX
T19 sequence (Q16584 whole entry): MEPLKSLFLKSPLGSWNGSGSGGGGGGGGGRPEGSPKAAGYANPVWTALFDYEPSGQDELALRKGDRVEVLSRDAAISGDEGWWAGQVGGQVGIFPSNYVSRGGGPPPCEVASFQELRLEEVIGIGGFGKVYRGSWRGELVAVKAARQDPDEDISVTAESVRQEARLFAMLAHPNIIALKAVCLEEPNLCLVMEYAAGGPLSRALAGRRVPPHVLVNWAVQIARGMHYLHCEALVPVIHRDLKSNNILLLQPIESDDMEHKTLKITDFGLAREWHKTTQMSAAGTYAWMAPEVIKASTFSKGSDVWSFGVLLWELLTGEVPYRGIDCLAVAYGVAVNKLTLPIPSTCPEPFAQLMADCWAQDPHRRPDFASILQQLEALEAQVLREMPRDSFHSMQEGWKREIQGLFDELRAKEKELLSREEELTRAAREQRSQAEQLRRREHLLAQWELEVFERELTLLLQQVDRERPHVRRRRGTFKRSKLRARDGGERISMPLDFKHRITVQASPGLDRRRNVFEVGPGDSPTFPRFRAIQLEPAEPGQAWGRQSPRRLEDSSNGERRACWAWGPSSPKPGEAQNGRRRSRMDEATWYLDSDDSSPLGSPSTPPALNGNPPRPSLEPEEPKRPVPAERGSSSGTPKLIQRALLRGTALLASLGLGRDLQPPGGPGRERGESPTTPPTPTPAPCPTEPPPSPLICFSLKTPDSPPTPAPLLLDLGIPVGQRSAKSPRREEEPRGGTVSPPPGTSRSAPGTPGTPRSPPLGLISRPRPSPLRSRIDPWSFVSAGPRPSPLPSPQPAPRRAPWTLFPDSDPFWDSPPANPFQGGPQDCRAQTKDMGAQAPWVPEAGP
In short: as §1

[20] = molecular target: T20, 384 kinases from the human genome (Homo sapiens, UniProt Q9P0L2); details: kinase MARK1 (Entrez MARK1)
T20 construct: purchased Eurofin/DiscoverX
In short: as §1

[21] = molecular target: T21, 384 kinases from the human genome (Homo sapiens, UniProt P27361); details: kinase ERK1 (Entrez MAPK3)
T21 construct: purchased Eurofin/DiscoverX
In short: as §1

[22] = molecular target: T22, 384 kinases from the human genome (Homo sapiens, UniProt Q9Y2I7); details: kinase PIKFYVE (Entrez PIKFYVE)
T22 construct: purchased Eurofin/DiscoverX
In short: as §1

[23] = molecular target: T23, 384 kinases from the human genome (Homo sapiens, UniProt O95747); details: kinase OSR1 (Entrez OXSR1)
T23 construct: purchased Eurofin/DiscoverX
In short: as §1

[24] = molecular target: T24, 384 kinases from the human genome (Homo sapiens, UniProt P07947); details: kinase YES (Entrez YES1)
T24 construct: purchased Eurofin/DiscoverX
In short: as §1

[25] = molecular target: T25, 384 kinases from the human genome (Homo sapiens, UniProt P17948); details: kinase FLT1 (Entrez FLT1)
T25 construct: purchased Eurofin/DiscoverX
In short: as §1

[26] = molecular target: T26, 384 kinases from the human genome (Homo sapiens, UniProt O76039); details: kinase CDKL5 (Entrez CDKL5)
T26 construct: purchased Eurofin/DiscoverX
In short: as §1

CC(C)C(=O)N1CCN(c2ccc(NC(=O)c3cc4ccccc4o3)cc2Cl)CC1 [Compound 21]
Percent Control [1]: 68% | Percent Control [2]: 81% | Percent Control [3]: 90% | Percent Control [4]: 100% | Percent Control [5]: 65% | binding to BRAF ([6]; 10 µM of 21): failed to bind | Percent Control ([6]; kinase BRAF (Entrez BRAF)): 93% | Percent Control [7]: 90% | Percent Control [8]: 93% | Percent Control [9]: 100% | Percent Control [10]: 100% | Percent Control [11]: 83% | Percent Control [12]: 69% | Percent Control [13]: 97% | Percent Control [14]: 100% | Percent Control [15]: 100% | Percent Control [16]: 100% | Percent Control [17]: 98% | Percent Control [18]: 96% | Percent Control [19]: 93% | Percent Control [20]: 93% | Percent Control [21]: 93% | Percent Control [22]: 61% | Percent Control [23]: 95% | Percent Control [24]: 89% | Percent Control [25]: 87% | Percent Control [26]: 89%

From publication PMC8333425, “Discovery of a dual Ras and ARF6 inhibitor from a GPCR endocytosis screen” (Nature Communications, 2021)
